For experiment [1], the system named is platelet coagulation. Put plainly: Inhibitory activities of test compounds against platelet coagulation in vitro (ADP-induced, rat platelet-rich plasma, aggregometer). The format is cell-based. The conditions noted are these: 10 μg/ml test substance in rat PRP, maximum rate of platelet coagulation over 5 min; for inhibition at 10 µg/mL: 5 min, read-out: Test Example 1 (% inhibition). How it is done: Confirmation of Inhibitory Activities of Test Compounds Against Platelet Coagulation In Vitro
Three to four male Sprague-Dawley rats (8 weeks of age, Japan SLC., Inc.) per group were used in the present test. Platelet coagulation was determined by platelet aggregometer (MCM Hema Tracer 313M, MC Medical, Inc.) according to modified methods described by Born et al. (Journal of Physiology, vol. 168, 178 (1963)). Blood (6.3 ml) was collected from abdominal aorta of rats anesthetized with pentobarbital sodium (40 mg/kg) with a microsyringe containing 0.7 ml of sodium citrate at a concentration of 3.8% as anti-coagulant. The obtained blood containing sodium citrate was centrifuged (230×g for 15 min at room temperature) and plate-rich plasma (hereinafter referred to as PRP) fraction was isolated. Furthermore, after PRP was isolated, the blood was further centrifuged (2,000×g for 10 min at room temperature) and platelet-poor plasma (hereinafter referred to as PPP) fraction was isolated. Platelet count in PRP was determined by automated hematology analyzer (KX-21N, SYSMEX CORPORATION) and adjusted as 5×10^8/ml. After PRP (239 μl) was put into each cuvette, the test substance dissolved in dimethyl sulfoxide (DMSO, 1 μl) was added to the PRP solution and assessed by automated hematology analyzer. In the control group, DMSO solution (1 μl) instead of the test substance solution was added to the PRP solution. After warming at 37° C. for 1.5 min, 10 μl of adenosine-5′-diphosphate (ADP) solution (final concentration: […]) was added, and platelet coagulation was induced. Platelet coagulation was determined for 5 min and the maximum rate of plate coagulation determined.

Experiment [2] concerns platelet coagulation. As to the kind of experiment: Inhibitory activities of test compounds against platelet coagulation ex vivo (oral administration to rats 4 hrs prior to blood collection, ADP-induced, PRP). The conditions noted are these: for Test Example 2 (% inhibition): head prints (10 μg/ml), orally administered to rats 4 hrs prior to blood collection, ADP-induced coagulation in PRP; for inhibition at 10 µg/mL: Rattus norvegicus, Platelet, po, 4 h, read-out: Test Example 2 (% inhibition). Format: in vivo, rat. On the procedure: Three to four male Sprague-Dawley rats (8 weeks of age, Japan SLC., Inc.) per group were used in the present test. […] In the control group, the vehicle was similarly and orally administered at the rate of 1 mL/kg 4 hrs prior to the blood collection. […] The obtained blood containing sodium citrate was centrifuged (230×g for 15 min at room temperature) and PRP fraction was isolated. Furthermore, after PRP was isolated, the blood was further centrifuged (2,000×g for 10 min at room temperature) and PPP fraction was isolated. Platelet count in PRP was determined by automated hematology analyzer (KX-21N, SYSMEX CORPORATION) and adjusted as 5×10^8/ml. After PRP (240 μl) was put into each cuvette, the platelet coagulation was assessed by automated hematology analyzer. After warming at 37° C. for 1.5 min, 10 μl of ADP solution (final concentration: […]) was added, and platelet coagulation was induced. Platelet coagulation was determined for 5 min and the maximum rate of plate coagulation determined.

Structures are written as SMILES. Where a name gives a salt, the structure may show the parent alone.

Consider 15 molecules from patent publication US7829580B2, “Cyclic amine derivative having heteroaryl ring” (Sankyo Company, Ltd., priority 2006, dated 2010).

Broadly, the inhibition is the relative decrease from the control value, in per cent.

As for `Cl.O=C(O)CCn1cc(/C=C2\CN(C(C(=O)C3CC3)c3ccccc3F)CCC2S)cn1` (stereo not drawn) [Example 249, (E)-3-{[2-(Carboxyethyl)-1H-pyrazol-4-yl]methylidene}-1-[2-cyclopropyl-1-(2-fluorophenyl)-2-oxoethyl]-4-sulfanylpiperidine hydrochloride], in experiment [1], the “Test Example 1 (% inhibition)” value stood at 81%. In addition, the “Test Example 2 (% inhibition)” value in experiment [2] came out at 88%. The matching figures for `CONC(=O)Cn1ccc(/C=C2\CN(C(C(=O)C3CC3)c3ccccc3F)CCC2S)n1.Cl` (stereo not drawn) [Example 192, (E)-1-[2-Cyclopropyl-1-(2-fluorophenyl)-2-oxoethyl]-3-{[1-(N-methoxycarbamoylmethyl)-1H-pyrazol-3-yl]methylidene}-4-sulfanylpiperidine hydrochloride]: 84% and 81%. On to `O=C(O)CCn1ncc(/C=C2\CN(C(C(=O)C3CC3)c3ccccc3F)CCC2S)n1` (stereo not drawn) [Example 242, (E)-3-{[2-(Carboxyethyl)-2H-1,2,3-triazol-4-yl]methylidene}-1-[2-cyclopropyl-1-(2-fluorophenyl)-2-oxoethyl]-4-sulfanylpiperidine hydrochloride], for which the inhibition at 10 µg/mL turned out to be 75% in experiment [1] and 82% in experiment [2]. For the molecule `CCOC(=O)Cn1ccc(/C=C2/CN(C(C(=O)C3CC3)c3ccccc3F)CCC2S)n1` (stereo not drawn) [Example 154, (Z)-1-[2-Cyclopropyl-1-(2-fluorophenyl)-2-oxoethyl]-3-{[1-(ethoxycarbonylmethyl)-1H-pyrazol-3-yl]methylidene}-4-sulfanylpiperidine hydrochloride], the inhibition at 10 µg/mL in experiment [2] stood at 79%. Regarding `O=C(O)CCCn1cc(/C=C2\CN(C(C(=O)C3CC3)c3ccccc3F)CCC2S)nn1` (stereo not drawn) [Example 143, (E)-3-{[1-(3-Carboxypropyl)-1H-1,2,3-triazol-4-yl]methylidene}-1-[2-cyclopropyl-1-(2-fluorophenyl)-2-oxoethyl]-4-sulfanylpiperidine hydrochloride], the inhibition at 10 µg/mL in experiment [1] came to 81%; in experiment [2], 69%. The matching figures for `O=C(O)CCCCn1ccc(/C=C2\CN(C(C(=O)C3CC3)c3ccccc3F)CCC2S)n1` (stereo not drawn) [Example 121, (E)-3-{[1-(4-Carboxybutyl)-1H-pyrazol-3-yl]methylidene}-1-[2-cyclopropyl-1-(2-fluorophenyl)-2-oxoethyl]-4-sulfanylpiperidine hydrochloride]: 55% and 72%. In the same order, the values of `O=C(O)CCn1nnnc1/C=C1\CN(C(C(=O)C2CC2)c2ccccc2F)CCC1S` (stereo not drawn) [Example 258, (E)-3-{[1-(2-Carboxyethyl)-1H-tetrazol-5-yl]methylidene}-1-[2-cyclopropyl-1-(2-fluorophenyl)-2-oxoethyl]-4-sulfanylpiperidine hydrochloride] are 85% and 76%. Take `Cl.O=C(C1CC1)C(c1ccccc1F)N1CCC(S)/C(=C/c2c[nH]nn2)C1` (stereo not drawn) [Example 235, (E)-1-[2-Cyclopropyl-1-(2-fluorophenyl)-2-oxoethyl]-4-sulfanyl-3-{[1(2)H-1,2,3-triazol-4(5)-yl]methylidene}piperidine hydrochloride]: in experiment [1], the “Test Example 1 (% inhibition)” value was determined as 77%. Further, the “Test Example 2 (% inhibition)” value in experiment [2] is 54%. For `O=C(O)CCn1nncc1/C=C1\CN(C(C(=O)C2CC2)c2ccccc2F)CCC1S` (stereo not drawn) [Example 134, (E)-3-{[1-(2-Carboxyethyl)-1H-1,2,3-triazol-5-yl]methylidene}-1-[2-cyclopropyl-1-(2-fluorophenyl)-2-oxoethyl]-4-sulfanylpiperidine hydrochloride], in experiment [1], the inhibition at 10 µg/mL worked out at 85%.

`CC(=O)SC1CCN(C(C(=O)C2CC2)c2ccccc2F)C/C1=C\c1ccn(CCC(=O)O)n1` (stereo not drawn) [Example 114, (E)-4-(Acetylsulfanyl)-3-{[1-(2-carboxyethyl)-1H-pyrazol-3-yl]methylidene}-1-[2-cyclopropyl-1-(2-fluorophenyl)-2-oxoethyl]piperidine hydrochloride]: in experiment [2], the inhibition at 10 µg/mL worked out at 81%.

Regarding `O=C(CCCn1nncc1/C=C1\CN(C(C(=O)C2CC2)c2ccccc2F)CCC1S)NO` (stereo not drawn) [Example 262, (E)-1-[2-Cyclopropyl-1-(2-fluorophenyl)-2-oxoethyl]-3-({1-[3-(N-hydroxycarbamoyl)propyl]-1H-1,2,3-triazol-5-yl}methylidene)-4-sulfanylpiperidine hydrochloride], the inhibition at 10 µg/mL in experiment [1] amounted to 71%; in experiment [2] it was 91%.

Turning to `O=C(O)Cn1ccc(/C=C2\CN(C(C(=O)C3CC3)c3ccccc3F)CCC2S)n1` (stereo not drawn) [Example 77, (E)-3-{[1-(Carboxymethyl)-1H-pyrazol-3-yl]methylidene}-1-[2-cyclopropyl-1-(2-fluorophenyl)-2-oxoethyl]-4-sulfanylpiperidine hydrochloride], the inhibition at 10 µg/mL amounted to 76% in experiment [1] and 77% in experiment [2]. The matching figures for `O=C(O)CCn1nnc(/C=C2\CN(C(C(=O)C3CC3)c3ccccc3F)CCC2S)n1` (stereo not drawn) [Example 257, (E)-3-{[2-(2-Carboxyethyl)-2H-tetrazol-5-yl]methylidene}-1-[2-cyclopropyl-1-(2-fluorophenyl)-2-oxoethyl]-4-sulfanylpiperidine hydrochloride]: 87% and 51%. In the same order, the values of `CCOC(=O)CCn1ccc(/C=C2\CN(C(C(=O)C3CC3)c3ccccc3F)CCC2S)n1` (stereo not drawn) [Example 112, (E)-1-[2-Cyclopropyl-1-(2-fluorophenyl)-2-oxoethyl]-3-({1-[2-(ethoxycarbonyl)ethyl]-1H-pyrazol-3-yl}methylidene)-4-sulfanylpiperidine hydrochloride] are 75% and 91%.

Take `O=C(O)CCCn1ccc(/C=C2\CN(C(C(=O)C3CC3)c3ccccc3F)CCC2S)n1` (stereo not drawn) [Example 117, (E)-3-{[1-(3-Carboxypropyl)-1H-pyrazol-3-yl]methylidene}-1-[2-cyclopropyl-1-(2-fluorophenyl)-2-oxoethyl]-4-sulfanylpiperidine hydrochloride]: the values for the inhibition at 10 µg/mL in experiment [1] and in experiment [2] were 70% and 63%, respectively.
